Here are results for 13 compounds from ChEMBL document CHEMBL1201862, “PubChem BioAssay data set” (2004).

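Interpolation was linear, between the two tested concentrations surrounding the appropriate level; five concentrations were tested over 48 hours in 96-well plates. Abbreviation: GI50, concentration required for 50% inhibition of growth.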 Activity calls are given as the source filed them. No stated cut-off is given here; in the data, active = GI50 up to about 1.1 µM and inactive = higher. Non-standard residues stand in square brackets, D forms with d. Residues, ends and D or L forms follow the SMILES beside them. *: point of attachment. NMeF = CN[CH](Cc1ccccc1)C(=O)O; NMeV = CN[CH](C(=O)O)C(C)C; Boc = CC(C)(C)OC(=O)*

Among the test systems are HCT-15; HCT-116; CAKI-1; TK-10; K562; UACC-62; SK-OV-3; HL-60; COLO 205; DMS-114; SF-268; DLD-1; IGROV-1; SNB-75; RPMI-8226; NCI-H522; NCI-H226.
What all share (test): NCI anticancer screen, dose series, 48 h

As for `N#CCC(=O)N1CCCOCCC1`, the GI50 was 17.9 µM in the assay on HCT-15; > 100 µM (inactive) in the assay with HCT-116; > 100 µM (inactive) with CAKI-1; > 100 µM (inactive) in the assay with TK-10; > 100 µM (inactive) in the assay on K562; > 100 µM (inactive) with UACC-62. Moreover, the GI50 was > 100 µM (inactive) in the assay on SK-OV-3; 58.7 µM (inactive) in the assay on HL-60; 21.8 µM (inactive) with COLO 205; > 100 µM (inactive) in the assay on DMS-114; > 100 µM (inactive) in the assay with SF-268; > 100 µM (inactive) in the assay on DLD-1. Also, the GI50 with IGROV-1 was > 100 µM (inactive).

For the compound `O=C(CC(=O)N1N=C(n2ccc3ccccc32)CC1c1ccccc1)Nc1ccccc1Cl` (stereo not given), the GI50 with HCT-15 is greater than 100 µM; in the assay with HCT-116, > 100 µM (inactive); in the assay on TK-10 it was > 100 µM (inactive); with SNB-75, > 100 µM (inactive); in the assay with K562 it was > 100 µM (inactive); in the assay with UACC-62, > 100 µM (inactive). Also, the GI50 in the assay with SK-OV-3, in the assay with HL-60, with RPMI-8226, with COLO 205, in the assay on DMS-114 and in the assay on NCI-H522 was > 100 µM (inactive) in each case. The GI50 with SF-268 and in the assay on IGROV-1 was > 100 µM (inactive) in each case.

On to `CC1=NC2(C(=O)O)C3(C(=O)O)N=C(C)OC3(C(F)(F)F)C2(C(F)(F)F)O1` (stereo not given), for which the GI50 in the assay with HCT-15 was greater than 10 µM; in the assay on HCT-116, > 100 µM (inactive); with CAKI-1 it was > 100 µM (inactive); with TK-10, > 100 µM (inactive); with NCI-H226, > 100 µM (inactive); with SNB-75, > 100 µM (inactive). In addition, the GI50 with K562, in the assay with UACC-62, with SK-OV-3, in the assay with HL-60, in the assay on COLO 205 and in the assay with DMS-114 was > 100 µM (inactive) throughout. Besides, the GI50 in the assay on NCI-H522, in the assay on SF-268, in the assay with DLD-1 and with IGROV-1 was > 100 µM (inactive) each time.

On to `CC(C)C(NC(=O)OC(C)(C)C)C(=O)N(C)C(Cc1ccccc1)C(=O)N(C)C(C(=O)O)C(C)C` (stereo not drawn) (Boc-Val-[NMeF]-[NMeV]-OH; configuration not given here), for which the GI50 with HCT-15 is greater than 100 µM; with HCT-116, > 100 µM (inactive); in the assay on TK-10 it was > 100 µM (inactive); in the assay with NCI-H226 it was > 100 µM (inactive); with K562, > 100 µM (inactive); with UACC-62 it was > 100 µM (inactive). Also, the GI50 was > 100 µM (inactive) with SK-OV-3; > 100 µM (inactive) with HL-60; > 100 µM (inactive) in the assay on RPMI-8226; > 100 µM (inactive) in the assay on COLO 205; > 100 µM (inactive) in the assay on DMS-114; 71.1 µM (inactive) with NCI-H522. For the same compound, the GI50 was 62.4 µM (inactive) with SF-268 and > 100 µM (inactive) in the assay with IGROV-1.

`CN(C)c1ccccc1CC(c1c[nH]c2ccccc12)c1c[nH]c2ccccc12`: the GI50 was 12.2 µM in the assay with HCT-15; 11.2 µM (inactive) in the assay on HCT-116; 4.94 µM (inactive) with CAKI-1; 16.2 µM (inactive) in the assay on TK-10; 12.1 µM (inactive) in the assay on NCI-H226; 10.3 µM (inactive) in the assay on SNB-75. For the same compound, the GI50 is 10.7 µM (inactive) in the assay on K562; 14.2 µM (inactive) in the assay on UACC-62; 19.3 µM (inactive) in the assay on SK-OV-3; 7.93 µM (inactive) with HL-60; 2.82 µM (inactive) in the assay on COLO 205; 7.62 µM (inactive) with DMS-114. Also, the GI50 in the assay on NCI-H522 is 12.9 µM (inactive); in the assay on SF-268, 14.8 µM (inactive); in the assay on DLD-1, 15.7 µM (inactive); in the assay with IGROV-1, 15.8 µM (inactive).

As to `C#Cc1c(C)c(/C=C/C(C)=C/C(=O)OC)n(C)c1C`, the GI50 is 95.3 µM in the assay with HCT-15; 65.8 µM (inactive) in the assay on HCT-116; > 100 µM (inactive) with CAKI-1; > 100 µM (inactive) in the assay with TK-10; > 100 µM (inactive) in the assay on NCI-H226; 24.2 µM (inactive) in the assay with K562. Also, the GI50 in the assay on UACC-62 was 94.6 µM (inactive); with SK-OV-3, > 100 µM (inactive); with HL-60 it was 12.1 µM (inactive); with RPMI-8226, 40.3 µM (inactive); in the assay on COLO 205, > 100 µM (inactive); with DMS-114 it was 36.1 µM (inactive). The GI50 in the assay with NCI-H522 was 71.8 µM (inactive); with SF-268, 79.3 µM (inactive); with DLD-1, 79.4 µM (inactive); with IGROV-1 it was > 100 µM (inactive).

As for `CC(C)(C)C(=C[S+]([O-])/N=C/c1ccccc1)C(C)(C)C` (stereo not given), the GI50 is 23 µM with HCT-15; 30.4 µM (inactive) with HCT-116; 30 µM (inactive) in the assay on CAKI-1; > 100 µM (inactive) with TK-10; 20.7 µM (inactive) with NCI-H226; 16.4 µM (inactive) in the assay on SNB-75. Further, the GI50 with K562 was 1.23 µM (inactive); with SK-OV-3, 26.6 µM (inactive); in the assay on RPMI-8226, 20.8 µM (inactive); in the assay with COLO 205 it was 41.1 µM (inactive); in the assay on DMS-114 it was 28.1 µM (inactive); in the assay with NCI-H522, 23 µM (inactive). The results for the GI50 in the assay on SF-268, in the assay with DLD-1 and with IGROV-1 were 49.4 µM (inactive), 31 µM (inactive) and 25.8 µM (inactive), respectively.

As to `CC1=C(C(=O)Nc2ccccc2)C(c2cccc3ccccc23)C(C(=O)Nc2ccccc2)=C(C)N1`, the GI50 in the assay on HCT-15 was 16.2 µM; in the assay on HCT-116, 15.4 µM (inactive); with CAKI-1 it was 15.6 µM (inactive); with TK-10 it was 31.5 µM (inactive); in the assay with NCI-H226 it was 1.74 µM (inactive); in the assay on SNB-75 it was 15.6 µM (inactive). In addition, the GI50 with K562 was 30.4 µM (inactive); with UACC-62, 13.8 µM (inactive); in the assay on SK-OV-3, 17.1 µM (inactive); in the assay on HL-60, 17.1 µM (inactive); with COLO 205, 13.4 µM (inactive); in the assay with DMS-114, 24.9 µM (inactive). The GI50 in the assay on NCI-H522 was 16 µM (inactive); with SF-268, 21.5 µM (inactive); in the assay on DLD-1, 28.2 µM (inactive); with IGROV-1, 25.6 µM (inactive).

As to `COc1cc(C2C(Cl)C(=O)N2NC(=O)c2ccc(NC(C)=O)cc2)ccc1O` (stereo not given), the GI50 in the assay with HCT-15 was greater than 100 µM; with HCT-116 it was > 100 µM (inactive); in the assay with CAKI-1, > 100 µM (inactive); in the assay with TK-10, > 100 µM (inactive); in the assay on NCI-H226 it was > 100 µM (inactive); in the assay on K562, > 100 µM (inactive). Also, the GI50 with UACC-62, in the assay with SK-OV-3, in the assay with HL-60, in the assay with RPMI-8226, in the assay on COLO 205 and with DMS-114 was > 100 µM (inactive) each time. Moreover, the GI50 in the assay with NCI-H522, in the assay on SF-268, in the assay on DLD-1 and with IGROV-1 was > 100 µM (inactive) in each case.

In the case of `CCOC(=O)c1c(-c2[nH]c(C(=O)OCc3ccccc3)c(C)c2C(=O)OCC)[nH]c(C(=O)OCc2ccccc2)c1C`, the GI50 was greater than 100 µM with HCT-15; > 100 µM (inactive) in the assay with HCT-116; > 100 µM (inactive) with CAKI-1; > 100 µM (inactive) in the assay on TK-10; > 100 µM (inactive) in the assay with NCI-H226; 29 µM (inactive) with SNB-75. Also, the GI50 in the assay on UACC-62, with SK-OV-3, with RPMI-8226, in the assay with COLO 205, in the assay on DMS-114 and with NCI-H522 was > 100 µM (inactive) in each case. In addition, the GI50 in the assay on SF-268, in the assay on DLD-1 and in the assay with IGROV-1 was > 100 µM (inactive) throughout.

Regarding `COC(=O)C1CC2c3c(c4ccccc4n3C)CC(C1=O)N2C` (stereo not given), the GI50 was 22.3 µM in the assay with HCT-15; 33 µM (inactive) in the assay with HCT-116; 43.5 µM (inactive) in the assay on CAKI-1; 40.2 µM (inactive) in the assay on TK-10; 50.6 µM (inactive) with NCI-H226; 31.5 µM (inactive) with SNB-75. Further, the GI50 in the assay on K562 was 40.1 µM (inactive); with UACC-62 it was 49.5 µM (inactive); with SK-OV-3, 51.4 µM (inactive); in the assay on HL-60, 27.3 µM (inactive); with COLO 205, 17.3 µM (inactive); in the assay with DMS-114 it was 21.2 µM (inactive). Besides, the GI50 in the assay on NCI-H522 was 17.3 µM (inactive); in the assay on SF-268, 68.9 µM (inactive); in the assay on DLD-1 it was 40.9 µM (inactive); in the assay on IGROV-1 it was 52.8 µM (inactive).

For the compound `CN1CCCCC(C(O)(c2ccccc2)c2ccccc2)C1=O` (stereo not given), the GI50 is 16.3 µM in the assay with HCT-15; 24.8 µM (inactive) with HCT-116; > 100 µM (inactive) with TK-10; > 100 µM (inactive) in the assay on NCI-H226; > 100 µM (inactive) in the assay on SNB-75; > 100 µM (inactive) with K562. Further, the GI50 is > 100 µM (inactive) with UACC-62; > 100 µM (inactive) in the assay with SK-OV-3; 24.1 µM (inactive) in the assay on RPMI-8226; 56.2 µM (inactive) in the assay on COLO 205; 86.1 µM (inactive) in the assay on DMS-114; > 100 µM (inactive) in the assay with NCI-H522. In addition, the GI50 in the assay with SF-268 was > 100 µM (inactive); with DLD-1 it was 39.4 µM (inactive); in the assay on IGROV-1 it was > 100 µM (inactive).

For the compound `CCC1C(C)c2c([nH]c3ccccc23)C2C(=O)N(c3ccccc3)C(=O)C21` (stereo not given), the GI50 was 13.6 µM with HCT-15; 31.3 µM (inactive) in the assay with TK-10; 11.4 µM (inactive) in the assay with SNB-75; 12.6 µM (inactive) with K562; 9.42 µM (inactive) in the assay with UACC-62; 19.4 µM (inactive) with SK-OV-3. Besides, the GI50 is 11.1 µM (inactive) with HL-60; 11.9 µM (inactive) in the assay on RPMI-8226; 16.1 µM (inactive) in the assay with COLO 205; 13.4 µM (inactive) in the assay on DMS-114; 20 µM (inactive) with SF-268; 10.6 µM (inactive) in the assay on DLD-1. Also, the GI50 in the assay with IGROV-1 is 3.67 µM (inactive).
